In patent publication US6696495B2, “Treatment of disorders secondary to organic impairments” (Snowden Pharmaceuticals, LLC, priority 1998, dated 2004):
Like-named read-outs stand apart in the source and are kept apart here.

Assays:
[1] = system: Sick Building Syndrome (SBS); experiment: Case history 20; type: in vivo, human; conditions: sibutramine 5 mg. t.i.d. Person
Excerpt: 20. Sick Building Syndrome (SBS)
This person began to note an increasing fatigue, poor concentration, rash, and wheezing which they related to exposure to unknown foreigns in the large building in which they worked. They also noted that more than 40 other employees had similar symptoms. […] They were then forced to leave their job in this building with a gradual relief of all symptoms over the next several weeks.

[2] = system: Heroin Craving and Abuse; type: in vivo, human
Excerpt: 21. Relief of Heroin Craving and Abuse (Problem No. 12) Sibutramine Patient No. 165
A single person was introduced to heroin by snorting when they were particularly stressed with the anger and pain of losing a boyfriend. They had always had difficulty recovering from pain, anger and loss but the heroin rapidly made them feel “normal”. They quickly moved to the intravenous route and reached a maximum intake of 5 bags per day (approximately $100/day in cost) for the next 6 months when they were discovered to have charged large amounts on their charge cards. They were then hospitalized in a drug detoxification hospital for three weeks but soon relapsed after discharge. After their second round of treatment they were referred to the care of a psychiatrist (the inventor herein). The patient described constant, unrelenting cravings for heroin and expressed that it would be “next to impossible” to remain free of the drug for any length of time. […] Out of desperation, the dose was increased to 15 mg in the AM and within an hour they noted a marked change. […] They now felt the “normal” feeling that heroin had given them and no longer noted any anger, hurt or distress.
They gained 15 pounds the first 2 weeks on the 15 mg of sibutramine in the morning. This was partially relieved by adding a 5 mg dose of sibutramine in the afternoon. This effect on the heroin craving and hurt is therefore clearly separate from the FDA-approved anorexic effect of sibutramine. […] They are now working at two jobs to pay their back debts.

[3] = system: Cerebral Palsy; experiment: Case history 26; type: in vivo, human; conditions: sibutramine 15 mg once a day; person two
Excerpt: 26. The Symptoms Due to Cerebral Palsy
person two had suffered from Cerebral Palsy since birth. Their whole life they had little control of their right arm and hand, and they could not keep their arm straight and down by their side except for short periods of time and using the utmost concentration to do so. Most often they kept their arm in an upright position with their hand near or above their shoulder and their elbow bent. They had no practical use from the arm other than to hold something against their chest. Their hand was also rigid and kept in a loose fist configuration. Fine motor movements of the fingers were impossible for them. […] They had gained control of the right arm and their hand. They are able to hold their hand down by their side for longer periods of time and less concentration required to do so. For the first time in their life they were able to make controlled movements and raise their arm and hand above their head.

[4] = Overall clinical observations in the patients treated with sibutramine; type: in vivo, human
Excerpt: The term sibutramine as used herein means compounds of sibutramine hydrochloride monohydrate, more specifically N,N-dimethyl-1-[1-(4-chlorophenyl)cyclobutyl]-3-methylbutylamine hydrochloride preferably in its monohydrate form, and enantiomers and analogues thereof, as described in U.S. Pat. Nos. 4,746,680, 4,929,629 and 5,436,272. Sibutramine is believed to inhibit reuptake of norepinephrine, serotonin and dopamine thereby intensifying their effects in the brain. Sibutramine is commercially available as MERIDIA®, Knoll Pharmaceutical Company, Mount Olive, N.J. Capsules are presently available with discrete dosages of 5, 10 and 15 mg for oral administration. The sibutramine is administered in a pharmaceutically active dose. The preferred dosage is about 5 mg three times a day but there is variation between patients for the best dose. It is believed that the cytochrome P450 system differs in individuals and the dose must be determined empirically in each patient. The effect of the cytochrome P450 system on metabolism of psychotropic drugs is discussed in “Intercom: The Experts Converse”, published by The Journal of Clinical Psychiatry, November 1995. […] It is possible that higher or lower doses can be used depending upon each individual. Therefore, more flexibility in available dosage is needed. Furthermore, means of administration such as injection, rectal suppository, or transdermal patches may be utilized. Finally, a long-acting slow-release means such as oral tablet or capsule would be the preferred route in view of the rapid metabolism noted (5 hour duration of action usually) in most of the patients.
Although the use of sibutramine has been described for the treatment of conditions such as obesity, depression, diabetic hyperglycemia, hyperlipidemia, senile dementia and related conditions, and Parkinson's disease, it has been discovered that sibutramine can be successfully used in treating other problems unrelated to these conditions. […] For example, patients with ADD previously treated with stimulants found it easier to eat when treated with sibutramine and gained weight. […] It was generally necessary to continue anti-depressant therapy along with the sibutramine therapy.
Above and beyond the known effects of sibutramine on serotonin, dopamine and norepinephrine activation, there is believed to be an effect of this medication on the endorphic opiate neurotransmitter system which is evident in the patients who have been relieved of pain, rage, anger, self-mutilation and particularly addiction to heroin. […] It would appear that sibutramine activates endorphins or, at the very least, modifies the endorphinergic opioid systems to promote serenity and lack of pain and stress, and to reduce craving for heroin. Such a mechanism which was previously unsuspected may have also contributed to the therapeutic effects of sibutramine herein described for PTSD, asocial behavior and fibromyalgic pain which have not been helped by serotonin, dopamine and norepinephrine potentiators. This is in contradistinction to the therapeutic effects of sibutramine on ADHD, chronic fatigue, and the symptoms of Tourette's and non-Tourette's diseases. Finally, a differentiation between the serotonin, dopamine and norepinephrine potentiation versus the opiate-like therapeutic effects of sibutramine may be made in terms of duration of action, whereas the serotonin, dopamine, norepinephrine agonist effects lasted in most patients for only 4-6 hours (therefore requiring tid dosage), the opiate effects appear to last all day and require only a single AM dosage.
These benefits were lost rapidly when either the patient was taken off sibutramine or when steroids, such as cortisone were concomitantly administered.

[5] = system: Tourette's Tics, Asocial Behavior, and Relief of Hyposexuality; conditions: sibutramine 5 mg three times a day

SMILES: CC(C)CC(N(C)C)C1(c2ccc(Cl)cc2)CCC1.Cl (stereo not drawn) [sibutramine, N,N-dimethyl-1-[1-(4-chlorophenyl)cyclobutyl]-3-methylbutylamine hydrochloride]
- cognitive, fatigue and allergic symptoms [1]: rapid relief of the cognitive and fatigue symptoms, but no relief from the allergic symptomatology
- “nodding out” side effects ([2]; compared with heroin): none of the negative “nodding out” side effects
- weight gain ([2]; first 2 weeks on 15 mg in the morning): 15 pounds
- anger, hurt and narcotic craving ([2]; sibutramine 5 mg tid po, person): no relief from their anger and hurt nor from their narcotic craving
- anger, hurt and narcotic craving ([2]; sibutramine 15 mg in the AM): a complete relief
- duration of effect ([2]; sibutramine 15 mg in the AM): extended for the whole day
- time to marked change ([2]; sibutramine 15 mg in the AM): an hour
- side effects ([2]; sibutramine 15 mg in the morning): a dry mouth and a craving for food
- symptoms due to Cerebral Palsy, control of right arm and hand [3]: their symptoms due to Cerebral Palsy were relieved
- highest dose ([4]; 15 mg 3 times daily): 45 mg
- neurogenesis ([4]; believed, evidenced by increase in the hippocampus, enhanced mental and motor skills): induced neurogenesis
- lowest effective dose ([4]; human, in vivo): 0.25 mg daily
- onset of improvement ([4]; human, in vivo): alleviated within minutes or hours of treatment
- duration of serotonin, dopamine, norepinephrine agonist effects ([4]; most patients): 4 to 6 h
- depression ([4]; patients removed from anti-depressant medication): became depressed when removed from the anti-depressant medication and treated with sibutramine alone
- symptoms of Post Traumatic Stress ([4]; patients with Post Traumatic Stress): relieved the symptoms of Post Traumatic Stress
- duration of opiate effects ([4]; single AM dosage): last all day
- duration of action ([4]; usually, in most of the patients): 5 h
- ADHD [5]: his ADHD improved
- communication and social skills [5]: their communication and social skills improved
- motor and vocal tics, obsessive compulsive component ([5]; child): the motor and vocal tics associated with Tourette's Disease were decreased as well as the obsessive compulsive component
